Assay: in vitro
Details: human, hela cells, % viability

Q: Which viability at 28.5 h, 10 µM does the source give for `CC(=O)N1CCc2cc(C(O)CN3CCCC4CCCCC43)ccc21` (centres unmarked) [CBK282924] here?
A: 93.6%

Q: Which viability at 28.5 h, 10 µM does the source give for `O=C(c1ccccc1F)N1CCCC1Cn1c(=O)oc2ccccc21` (centres unmarked) [CBK282926] here?
A: 97.5%

Q: Which viability at 28.5 h, 10 µM does the source give for `COc1ccc([C@H]2CN(Cc3ccccc3)C[C@@H]2NC(C)=O)cc1` [CBK282930] here?
A: 92.1%

Q: Which viability at 28.5 h, 10 µM does the source give for `CC(=O)N1CCc2cc(C(=O)CN3CCC(c4ccccc4)C3)ccc21` (centres unmarked) [CBK282931] here?
A: 98%

Q: With `O[C@@H]1CN(Cc2ccccc2F)CC[C@H]1N1CCCC1` [CBK282934] as the molecule, how does the viability at 28.5 h, 10 µM read?
A: 96.9%

Q: For `OCCN(Cc1cccnc1)Cc1cccn1-c1ccccc1Cl` [CBK282936], which viability at 28.5 h, 10 µM is on record?
A: 89.7%

Q: For `COc1ccc(C(=O)NC2CCCNC2=O)s1` (centres unmarked) [CBK282938], which viability at 28.5 h, 10 µM is on record?
A: 88.4%

Q: Which viability at 28.5 h, 10 µM does the source give for `Cc1ccc(C(O)CN(C)Cc2c(C)nn(C)c2C)c(C)c1` (centres unmarked) [CBK282939] here?
A: 84.7%

Q: With `CCC(NC(=O)c1ccc(C(C)(C)C)[nH]c1=O)c1ccc(OC)cc1` (centres unmarked) [CBK282940] as the molecule, how does the viability at 28.5 h, 10 µM read?
A: 87.8%

Q: With `CN1CCC(CN(C)CC2CCCN(Cc3ccccc3)C2)C1` (centres unmarked) [CBK282946] as the molecule, how does the viability at 28.5 h, 10 µM read?
A: 90.7%

Q: Which viability at 28.5 h, 10 µM does the source give for `CCCn1ncc(CN[C@@H]2CCC[C@H]2Cc2cc(C)no2)c1C` [CBK282948] here?
A: 88.7%

Q: For `Fc1ccccc1CN(CCCn1ccnc1)Cc1ccco1` [CBK282952], which viability at 28.5 h, 10 µM is on record?
A: 109%

Q: For `Cc1c(CN(Cc2cccc(F)c2)CC2CCCO2)cnn1C` (centres unmarked) [CBK282953], which viability at 28.5 h, 10 µM is on record?
A: 89.9%

Q: With `OC12CCCCC1CN(CC1=Cc3ccccc3OC1)CC2` (centres unmarked) [CBK282954] as the molecule, how does the viability at 28.5 h, 10 µM read?
A: 86.3%

Q: Which viability at 28.5 h, 10 µM does the source give for `CCn1cc(CN2CCC(O)(c3ccc(C)cc3)CC2)c(C)n1` [CBK282955] here?
A: 89.2%

Q: Which viability at 28.5 h, 10 µM does the source give for `CCn1ncc(CN2CCC(O)(c3ccc(C)cc3)CC2)c1C` [CBK282956] here?
A: 90.2%

Q: For `Cc1cc(C)n(CC(O)CN(Cc2ccccc2)Cc2ccco2)n1` (centres unmarked) [CBK282957], which viability at 28.5 h, 10 µM is on record?
A: 95.7%

Q: Which viability at 28.5 h, 10 µM does the source give for `COCCCN(Cc1ccccn1)Cc1c(F)cccc1F` [CBK282959] here?
A: 93.5%

Q: Which viability at 28.5 h, 10 µM does the source give for `Cn1cncc1CN(CCCn1ccnc1)Cc1ccccc1F` [CBK282960] here?
A: 85%

Q: With `COCCCN(Cc1ccc(F)c(F)c1)Cc1ccccn1` [CBK282961] as the molecule, how does the viability at 28.5 h, 10 µM read?
A: 90.7%

Q: Which viability at 28.5 h, 10 µM does the source give for `Cc1cc(C2CCCCCN2Cc2c(C)nn(C)c2C)on1` (centres unmarked) [CBK282967] here?
A: 99.7%

Q: With `CCC(=O)N1CCC(c2nc(Cc3cccs3)no2)C1` (centres unmarked) [CBK282968] as the molecule, how does the viability at 28.5 h, 10 µM read?
A: 88.5%

Q: With `Cc1cc(C[C@@H]2COC[C@H]2NCc2ccccc2Cl)on1` [CBK282969] as the molecule, how does the viability at 28.5 h, 10 µM read?
A: 94.8%

Q: For `O=C(CCn1cncn1)N[C@H]1C2CCCCC2[C@@H]1c1ccccc1` (some centres unmarked) [CBK282970], which viability at 28.5 h, 10 µM is on record?
A: 100%

Q: With `CCCn1cc(CN2C3CCC2CC(O)(c2ccc(F)cc2)C3)cn1` (centres unmarked) [CBK282971] as the molecule, how does the viability at 28.5 h, 10 µM read?
A: 91.5%

Q: With `CCn1ncc(CN2C3CCC2CC(O)(c2ccc(F)cc2)C3)c1C` (centres unmarked) [CBK282973] as the molecule, how does the viability at 28.5 h, 10 µM read?
A: 100%

Q: With `COCCCN(Cc1ccccn1)Cc1ccc(F)cc1F` [CBK282974] as the molecule, how does the viability at 28.5 h, 10 µM read?
A: 103%

Q: For `COCCCN(Cc1cc(F)cc(F)c1)Cc1ccccn1` [CBK282975], which viability at 28.5 h, 10 µM is on record?
A: 100%

Q: With `OCC[C@H]1CN2CCCC2CN1Cc1cccn1-c1ccccc1F` (some centres unmarked) [CBK282977] as the molecule, how does the viability at 28.5 h, 10 µM read?
A: 93%

Q: With `Cc1cc(C)n(CC(O)CN(Cc2ccco2)Cc2cccs2)n1` (centres unmarked) [CBK282979] as the molecule, how does the viability at 28.5 h, 10 µM read?
A: 100%

Q: Which viability at 28.5 h, 10 µM does the source give for `Cc1cc2ccccc2n1CCCNC(=O)c1ccc(=O)n(C)c1` [CBK282982] here?
A: 104%

Q: Which viability at 28.5 h, 10 µM does the source give for `COc1ccc(CN2CCCC(c3nc(C)n4ccccc34)C2)cc1` (centres unmarked) [CBK282984] here?
A: 94.6%

Q: For `OCC[C@H]1CN2CCCC2CN1Cc1cccn1-c1cccc(F)c1` (some centres unmarked) [CBK282985], which viability at 28.5 h, 10 µM is on record?
A: 86.1%

Q: For `Cn1cncc1CN(CCc1ccccc1)Cc1ccncc1` [CBK282992], which viability at 28.5 h, 10 µM is on record?
A: 87.4%

Q: Which viability at 28.5 h, 10 µM does the source give for `Cc1cc(C[C@@H]2COC[C@H]2NCc2c(F)cccc2Cl)on1` [CBK282994] here?
A: 83.4%

Q: Which viability at 28.5 h, 10 µM does the source give for `OC12CCCCC1CN(Cc1nc3ccccc3[nH]1)CC2` (centres unmarked) [CBK282995] here?
A: 93.9%

Q: For `CC(=O)N1CCC(c2nc(Cc3cccs3)no2)C1` (centres unmarked) [CBK282998], which viability at 28.5 h, 10 µM is on record?
A: 108%

Q: With `Cc1cc(C[C@@H]2COC[C@H]2NCc2cccs2)on1` [CBK282999] as the molecule, how does the viability at 28.5 h, 10 µM read?
A: 95.8%

— PMC12040169 (PLOS Biology, 2025)
